Assay results: patent publication US20020183388A1, “Use of retinoids plus histone deacetylase inhibitors to inhibit the growth of solid tumors” (priority 2001, published 2002)

Tests used:
[1] = tested on: PC-3 human prostate cancer cells; test: Growth assay of PC-3 cells, cell number counted; format: cell-based; conditions: day 7; low dose TSA; drugs added only once on day 0
Method: (§1) Data was plotted using Prism 3.0.
Results of growth assays of the human prostate cancer cell line PC-3, are depicted in FIG. 20. Cells were treated as indicated. Cell number was counted on days 0, 3, 5, and 7. Drugs were added only once on day 0. TSA alone, retinoic acid alone, and retinol alone each inhibited cell growth by approximately 20% at day 7. The combination of low dose TSA plus retinoic acid or low dose TSA plus retinol inhibited cell growth by almost 60%.

[2] = tested on: LnCap human prostate cancer cells; test: Growth assay of LnCap cells, cell number counted; format: cell-based; conditions: 168 h, day 7, 1 μM retinoic acid, 1 μM retinol, 0.5 μM valproic acid, drugs added only once at time 0, read-out: inhibition of cell growth (FIG. 17)
Method: as §1
Cell number was counted on days 0, 3, 5, and 7. In this experiment, retinoic acid was employed alone at 1 μM. Retinol (vitamin A) was employed at 1 μM. Valproic acid, a histone deacetylase inhibitor, was employed at 0.5 μM alone. Combinations of these drugs were also used. All drugs were added only once, at time 0, in this experiment. […] Valproic acid (VPA) alone inhibited cell growth by approximately 40%. The combination of retinoic acid plus VPA inhibited cell growth by 75%, as did the combination of valproic acid plus retinol.

[3] = tested on: SCC-15 human head and neck cancer cells; test: Growth assay of SCC-15 cells, cell number counted; format: cell-based; conditions: SCC-15, 168 h, day 7, TSA 8 ng/ml, 1 μM retinoic acid, 1 μM retinol, drugs added only at time 0, read-out: inhibition of cell growth (FIG. 19)
Method: as §1
Cells were treated as indicated. Drugs were added only at time 0. Cell number was counted on days 0, 3, 5, and 7.
Cell number was counted on days 0, 3, 5, and 7. In this experiment, a low dose of TSA (8 ng/ml) was used alone or in combination with 1 μM retinoic acid or 1 μM retinol. Drugs were added only at time 0.

[4] = tested on: MB-435 human breast cancer cells; test: Growth assay of MB-435 cells by MTT; format: cell-based
Method: 96 well tissue culture dishes were seeded with 10^4 cells/well in 200 μL DME tissue culture medium supplemented with 10% fetal calf serum (FCS).
This assay detects color which is proportional to the number of cells present. Tissue culture medium containing drugs was removed and 200 µL of DME containing 2 mg/mL MTT ((3-4, 5-dimethyl thiazol-2yl) 2,5-diphenyltetrazolium bromide) was added to each well. Plates were incubated at 37° C. and 10% CO2 for 30 minutes. Medium containing MTT was then removed and the cells were washed once with PBS. Following removal of the PBS, 200 μL DMSO was added to each well and plates were placed on a rotating platform shaker for 5 minutes. Results were obtained by reading the absorbance at a wavelength of 550 nm using a spectrophotometer. Data was plotted using Prism 3.0.
Cells were plated in wells on day 0. Drugs were added on day 0 and again on days 3 and 5. The MTT assay was carried out on days 5 and 7. 1 μM of retinoic acid was used vs. 1 μM of liposomal retinoic acid (ATRA-IV). A very low dose (2 ng/ml) of trichostatin A (TSA) was also used. In addition, another inhibitor of histone deacetylases, 500 μM phenylbutyrate, was used. Various combinations of the drugs were also used in the growth assays.
Cells were treated as indicated.

[5] = tested on: SK-RC-39 cells (subcutaneous xenograft); test: Human tumor xenograft model in nu/nu mice; format: in vivo
Method: Forty Swiss nu/nu mice were injected in the right flank subcutaneously with 5×10^6 SK-RC-39 cells that had been cultured in 7% MEM and then trypsinized. Four days later, four cohorts of 10 mice each began to receive one tail vein injection of TSA or control and one injection of ATRA-IV or control every Monday, Wednesday and Friday for the duration of the experiment. The four treatment groups were as follows: (1) PBS with 1% EtOH+empty liposomes; (2) LipoATRA (7.4-8.1 mg/kg)+PBS with 1% EtOH; (3) TSA ([…])+empty liposomes; and (4) TSA+LipoATRA. The study ended in the eighth week of treatment and at least six animals remained in each arm at the conclusion of the study and were considered evaluable. The animals tolerated the treatment well and gained weight throughout the treatment course. […] The tumor growth inhibition observed in the TSA+LipoATRA arm was much greater than that observed in the control arm. While the difference between the TSA+LipoATRA and the TSA+empty liposome arm was significant (FIG. 16), both of these treatments led to a very statistically significant difference in growth as compared to the control arm.

[6] = tested on: SK-RC-39 human renal carcinoma cells; test: Growth assay of SK-RC-39 cells, cell number counted; format: cell-based; conditions: low dose TSA
Method: as §1
The cells were counted at day 7. A small amount of ethanol was added to the control cells, as a vehicle and solvent for the retinoic acid.
Culture conditions were as shown. […] The term EtOH indicates the control cells, treated with a very low amount of ethanol, the same amount used to dissolve retinoic acid.

[7] = tested on: SK-RC-01 human renal carcinoma cells; test: Growth assay of SK-RC-01 cells, cell number counted; conditions: for inhibition of cell growth (FIG. 7): retinoic acid
Method: Trichostatin A (Wako Pure Chemical Industries, Ltd., Osaka, Japan) was dissolved in 5 ml of EtOH to make a 1 mg/ml stock and sodium phenylbutyrate (NaPBA, Triple Crown America, Perkasie, Pa.) was prepared weekly from the powdered form to make a 25 mM stock solution. Cell lines were maintained in Minimal Essential Medium supplemented with 7% fetal calf serum, non-essential amino acids, and 1% penicillin/streptomycin (7% MEM).
(§2) 24 well tissue culture dishes were seeded with cells in 1 mL tissue culture medium (Clonetics) at 10^4 cells/well. Cells were incubated overnight at 37° C. in 10% CO2. Fresh medium containing drugs: Ethanol control (EtOH), 1 μM retinoic acid (RA), 2ng/mL trichostatin A (TSA), 25 μM sodium phenylbutyrate (PBa), and combinations of these were added the next day (day zero). Fresh medium containing drugs was added on days 3 and 5. Cells were trypsinized on days 0, 3, 5, and 7 and cell number was determined using a Z1 Coulter particle counter. […] Error bars are the standard error mean (SEM) of 4 replicate wells.
Cells were treated as indicated. The cell number was counted at day 7.
The cell number was counted on day 7.

[8] = tested on: HMEC normal human mammary epithelial cells (primary cultures); test: Growth assay of HMEC cells, cell number counted; format: cell-based; conditions: cells counted days 0, 3, 5, 7, 1 μM retinoic acid, 2 ng/ml TSA, 25 μM phenylbutyrate
Method: Also used were HMEC cells, which are cells from a normal human mammary epithelial cell line (primary cultures).
as §1
The drugs were added as described above, and cells were counted on days 0, 3, 5, and 7. […] However, in the body, most normal cells are not rapidly dividing as tumor cells are. […] This experiment was primarily performed in order to determine if the retinoid and histone deacetylase inhibitor combination worked similarly in tumor and normal epithelial cells.

[9] = tested on: SK-RC-45 human renal carcinoma cells; test: Growth assay of SK-RC-45 cells, cell number counted
Method: Liposome encapsulated ATRA (ATRA-IV, Antigenics Inc., New York, N.Y.) was reconstituted from 100 mg vials with 50 ml of 0.9% saline. Powdered ATRA was dissolved in EtOH to make a 1 mM ATRA (Sigma, St. Louis, Mo.) stock which was stored at −80° C. Trichostatin A (Wako Pure Chemical Industries, Ltd., Osaka, Japan) was dissolved in 5 ml of EtOH to make a 1 mg/ml stock and sodium phenylbutyrate (NaPBA, Triple Crown America, Perkasie, Pa.) was prepared weekly from the powdered form to make a 25 mM stock solution. Cell lines were maintained in Minimal Essential Medium supplemented with 7% fetal calf serum, non-essential amino acids, and 1% penicillin/streptomycin (7% MEM). Empty liposomes (provided by Antigenics Inc.) were diluted in 10 ml of 0.9% saline to equal the same concentration of liposomes in the lipoATRA.
as §2
Cells were treated as indicated. The cell number was counted on day 7.
Cells were treated as indicated and cell number was counted.

[10] = cells counted at day 7, low dose TSA
[11] = cells counted on day 7, 1 μM retinoic acid, low dose TSA

Compound: CC1=C(/C=C/C(C)=C/C=C/C(C)=C/CO)C(C)(C)CCC1 [retinol]
- inhibition of cell growth (FIG. 20) [1]: approximately 20%
- inhibition at 1 µM [2]: ~27%
- inhibition at 1 µM [3]: 35 to 40%

Compound: CCCC(CCC)C(=O)O [Valproic acid]
- inhibition at 0.5 µM [2]: ~40%

Compound: CC(/C=C/C(=O)NO)=C\[C@@H](C)C(=O)c1ccc(N(C)C)cc1 [TSA, trichostatin A]
- growth inhibition, high dose TSA (FIG. 3) ([4]; TSA 100 ng/ml): complete growth inhibition
- inhibition of cell growth (FIG. 1) ([4]; day 7, 1 μM retinoic acid, 1 μM ATRA-IV, 2 ng/ml TSA, 500 μM phenylbutyrate, drugs added days 0, 3, 5): did not inhibit cell growth
- comparison of cell growth reduction between treatments (FIG. 3) ([4]; days 3, 5, 7): better in reducing cell growth than phenylbutyrate
- toxicity, histologic analysis of the liver, lung, spleen and kidneys ([5]; nu/nu mice, tail vein injection Mon/Wed/Fri for eight weeks): lack of toxicity
- inhibition of tumor growth compared to control (FIG. 16) ([5]; tail vein injection Mon/Wed/Fri, eighth week of treatment, LipoATRA 7.4-8.1 mg/kg, TSA 34-41 μg/ml): 38%
- inhibition of cell growth (FIG. 6) ([6]; cells counted at day 7, retinoic acid): 80-90%
- inhibition of cell growth (FIG. 9) ([6]; cells counted on day 7, 1 μM retinoic acid): approximately 75%
- inhibition of cell growth (FIG. 20) [1]: approximately 20%
- inhibition of cell growth, high dose TSA (FIG. 7) ([7]; cells counted at day 7, TSA 100 ng/ml): roughly 100%
- inhibition of cell growth (FIG. 7) [7, 10]: 20-25%
- inhibition of cell growth (FIG. 12) [7, 11]: approximately 25%
- inhibition of cell growth, high dose TSA (FIG. 12) ([7]; cells counted on day 7, high dose TSA): greater than 95%
- inhibition of cell growth (FIG. 2) [8]: about 50%
- inhibition of cell growth (FIG. 8) [9, 11]: 60-65%
- inhibition of cell growth, high dose TSA (FIG. 8) ([9]; cells counted on day 7, TSA 100 ng/ml): extremely effective in inhibiting kidney cancer cell growth

Compound: CC1=C(/C=C/C(C)=C/C=C/C(C)=C/C(=O)O)C(C)(C)CCC1 [retinoic acid, 3, 7 dimethyl-9-(2,6,6-trimethyl-1-cyclohenen-1-yl)-2,4,6,8,-nonatetraenoic acid]
- inhibition at 1 µM ([4]; Homo sapiens, 168 h, day 7, 1 μM retinoic acid, 1 μM ATRA-IV, 2 ng/ml TSA, 500 μM phenylbutyrate, drugs added days 0, 3, 5, read-out: inhibition of cell growth (FIG. 1)): ~20%
- inhibition of cell growth (FIG. 20) [1]: approximately 20%
- inhibition at 1 µM [2]: 25%
- inhibition at 1 µM [3]: 35 to 40%
- inhibition at 1 µM ([7]; Homo sapiens, 168 h, read-out: inhibition of cell growth (FIG. 12)): 12.5%
- inhibition of cell growth (FIG. 7) [7, 10]: ~10%
- inhibition at 1 µM ([8]; Homo sapiens, HMEC, read-out: inhibition of cell growth (FIG. 2)): ~50%
- inhibition at 1 µM ([9]; Homo sapiens, 168 h, read-out: inhibition of cell growth (FIG. 8)): 55 to 60%
